# From publication PMC6895180 (Nature Communications, 2019)
# Several values for one entry are separate records, joined by “and”; a condition that tells them apart may be missing. Identical values can stand only once. Like-named read-outs stand apart in the source and are kept apart here. Marks after values point to notes of the source that are not given here.
# How the values were obtained:
# [1] = system: T. brucei s427 wildtype cells; experiment: Microscopy of trypanosome cell morphology (DAPI); format: cell-based, Trypanosoma brucei; conditions: 2× and 5× EC50; 6 h and especially 12 h
# Protocol: Growth assays of T. brucei
# To test the effect of the novel adenosine analogues on the growth of T. brucei BSF, s427 wildtype cells were seeded at 1×10^5 cells mL-1 in 5 mL of HMI-9 medium with 10% FBS and treated with compounds […]
# cells were also incubated in drug-free medium under the same conditions. 2 μM of 2’-deoxycoformycin were added to all cultures to avoid any potential effect of serum adenosine deaminase on the activity of test compounds and cordycepin.1
# Cells were manually counted in Neubauer chambers at 0, 2, 4, 6, 8, 12, 24, 36 and 48 h after addition of the drugs. At 6 and 12 h, cells were also collected and fixed to have their structure checked by […]
# Wash-out experiments with T. brucei
# A culture of bloodstream form T. brucei 427WT, at mid-log phase of growth, was harvested and resuspended at a density of 10^5 cells mL-1, in fresh medium containing either no test compound, or […]
# The cultures were incubated under standard conditions (37 °C/5% CO2) and cell counts were performed manually using a haemocytometer under phase contrast microscopy, every 24 h. The culture in continuous presence of analogue 9 was split in two at 8 h and 48 h (as indicated with arrows in Supplementary Figure S2). The split cultures were centrifuged and resuspended in the same volume of either fresh medium without test compound or fresh medium with the same concentration of compound 9 as before, reincubated. The detection limit for the manual cell count was 10^4 cells mL-1.
# After 6 and 12 h after addition of drugs, approximately 2×10^6 cells were harvested from each group and applied to glass slides pre-treated with poly-L-lysine, left to settle for 5 min and fixed with 4% formaldehyde for 4 min. The formaldehyde was neutralised by addition of 100 mM glycine (20 min).
# Cells were washed once with PBS and blocked for 1 h with 1% BSA/0.2% Tween-20 in PBS. Cells were […]
# A coverslip was then placed on top of the wells and sealed with nail varnish.
# Metabolic stability of nucleoside analogue 9 […]
# and B (Corning) were kept at -20°C. The test compound and the reference compounds diclofenac (MW […]
# [2] = system: B48: pentamidine, diminazene and melaminophenyl arsenical resistant T. brucei line; experiment: microbe, parasite or virus in culture; format: cell-based, Trypanosoma brucei brucei; conditions: for RF (B48): resistance factor vs Lister 427WT
# [3] = system: ISMR1: isometamidium-resistant T. brucei cell line; experiment: microbe, parasite or virus in culture; format: cell-based, Trypanosoma brucei brucei; conditions: for RF (ISMR1): resistance factor vs Lister 427WT
# Summary of the method: (§1)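 Trypanosomes (2 × 10^4 cells/well) exposed 48 h at 37 °C/5% CO2 in HMI-9/FBS to 23-step doubling dilutions from 100 µM, then resazurin added for a further 24 h. Fluorescence fitted to a variable-slope sigmoid curve.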
# [4] = system: TbAT1-KO: T. brucei cell line lacking the TbAT1(P2) transporter gene; experiment: microbe, parasite or virus in culture; format: cell-based, Trypanosoma brucei brucei; conditions: for RF (TbAT1-KO): resistance factor: ratio of EC50 of resistant and Lister 427WT
# Summary of the method: as §1
# [5] = system: T. b. brucei Lister 427WT; experiment: Drug susceptibility test (resazurin), Lister 427WT; format: cell-based, Trypanosoma brucei brucei
# Summary of the method: as §1
# P1 transporter = format: cell-based, Trypanosoma brucei
# Protocol: Non-specific association of radiolabel with the cell pellet was determined using an identical incubation in the presence of saturating (1 mM) unlabelled adenosine.
# [6] = Trypanosoma brucei, mean and SEM, n = 3, read-out: B48 EC50
# [7] = Trypanosoma brucei, mean and SEM, n = 3, read-out: ISMR1 EC50
# [8] = Trypanosoma brucei, source data, read-out: ISMR1 EC50, single determinations
# [9] = source data, read-out: ISMR1 EC50, single determinations
# [10] = Trypanosoma brucei, read-out: TbAT1-KO EC50, AVG, source data
# [11] = Trypanosoma brucei, read-out: TbAT1-KO EC50, mean and SEM, n = 3
# [12] = Trypanosoma brucei, read-out: TbAT1-KO EC50, single determinations, source data
# [13] = read-out: TbAT1-KO EC50, single determinations, source data
# [14] = Trypanosoma brucei, mean and SEM, n = 3, read-out: Lister 427 EC50
# [15] = Trypanosoma brucei, source data, read-out: s427 EC50, AVG
# [16] = Trypanosoma brucei, source data, read-out: s427 EC50, single determinations
# [17] = source data, read-out: s427 EC50, single determinations
# [18] = inhibition of [3H]adenosine uptake, mean ± SEM, n = 3, read-out: P1 transporter Ki
# [19] = source data, read-out: P1 transporter Ki, AVG
# [20] = Trypanosoma brucei, source data, read-out: ISMR1 EC50, AVG
Structure (SMILES),cell morphology [1],"EC50 [2, 6] [nM]","EC50 [3, 7] [nM]","EC50 [3, 8] [nM]",RF (ISMR1) [3],"EC50 [3, 9]","EC50 [4, 10] [nM]","EC50 [4, 11] [nM]","EC50 [4, 12] [nM]","EC50 [4, 13]","EC50 [5, 14] [nM]","EC50 [5, 15] [nM]","EC50 [5, 16] [nM]","EC50 [5, 17]",Ki (P1 transporter; [18]) [nM],Ki (P1 transporter; [19]) [nM],RF (B48) [2],"EC50 [3, 20] [nM]",RF (TbAT1-KO) [4],other results
"Nc1ncnc2c1ccn2[C@@H]1O[C@H](CO)C[C@H]1O [Compound 9, 3’-deoxytubercidin]",clear aberrant morphology,368 ± 13,32.4 ± 3.8,39.2,0.97,32 nM and 26 nM,374,375 ± 12,370,397 nM and 357 nM,33 ± 1,33.3,32,35.5 nM and 32.4 nM,99900 ± 21700,108000,,,,"EC50 ([2]; Trypanosoma brucei, source data, read-out: B48 EC50, single determinations): 378 nM; EC50 ([2]; source data, read-out: B48 EC50, single determinations): 383 nM and 343 nM"
"Nc1ncnc2c1c(Br)cn2[C@@H]1O[C@H](CO)[C@@H](O)[C@H]1O [Compound 8, 7-bromotubercidin]",clear aberrant morphology,448 ± 196,1530 ± 157,1390,4.85**,1100 nM and 2070 nM and 1520 nM,,825 ± 17.3,820,858 nM and 798 nM,,315,364,309 nM and 273 nM,,7100,1.42,1530,2.62***,"EC50 ([5]; Trypanosoma brucei, read-out: Lister 427 EC50, mean and SEM, n = 3): 320 ± 270 nM"
"Nc1ncnc2c1c(Br)cn2[C@@H]1O[C@H](CO)C[C@H]1O [Compound 10, 3’-deoxy-7-Br-tubercidin]",clear aberrant morphology,1.3 ± 0.3,1.1 ± 0.2,,0.63,,2.12,2.1 ± 0.25,,1.94 nM,1.8 ± 0.3,1.76,,,9470 ± 1400,10100,0.75,1.11,1.2,"EC50 ([2]; Trypanosoma brucei, source data, read-out: B48 EC50, AVG): 1.32 nM; fold improvement of affinity for P1 (P1 transporter; 10 versus 9 (bromine at 7-position)): 10 fold; Ki (P1 transporter; Cheng–Prusoff from IC50, read-out: P1 transporter Ki, single experiments): 13400 nM and 8500 nM and 8400 nM"
